What is called IC50 is the concentration needed to halve the response being measured.

Read-outs that look alike come from different tables or passages of the source.

The subject of one series is Jurkat cells. Put plainly: Cell Titer-Glo viability (cytotoxicity) assay, Jurkat. It counts as cell-based, human. The following applies: 72 hours exposure. The text has this:
(§1) We chose to use doxorubicin as the anthracycline as it is the best tolerated anthracycline in C57/Bl6 mice^11 and would allow for comparisons between in vivo and in vitro studies.

A further series relates to THP-1 cells. As to the kind of experiment: Cell Titer-Glo viability (cytotoxicity) assay, THP-1. It counts as cell-based, human. The following applies: 72 hours exposure.
Text: as §1
On the technique in general: Cellular ATP, detected with luciferase, serves as a proxy for viable cell number.

Series [1] concerns MFL2 cells (MLL-ENL + Flt3 ITD). Put plainly: cells. Particulars: Mus musculus, read-out: IC50 MFL2.
Method: (§8) Cells were grown at 37° C. with 5% CO2. Viability assays were done using the Cell Titer-Glo assay (Promega, Madison, Wis.) according to the manufacturer's protocol. All murine cells were derived from fetal liver cells infected with MLL-ENL alone or with a mutation of glycine at amino acid 12 to aspartate of NRAS (NRAS^G12D) or FLT3-ITD expressing vectors^10. Murine cells were maintained in stem cell media (40% DMEM, 40% IMDM, 20% FBS, supplemented with murine SCF to 10 ng/ml, murine IL6 to 2 ng/ml, and murine IL3 to 0.4 ng/ml).
For series [2], the system named is K562 cells. Put plainly: Cell Titer-Glo viability (cytotoxicity) assay, K562. The class given is cell-based, human. The following applies: 72 hours exposure.
Text: as §1

The subject of another series is OCI-AML3 cells. Put plainly: Cell Titer-Glo viability (cytotoxicity) assay, OCI-AML3. The class given is cell-based, human. The following applies: 72 hours exposure.
Text: as §1

The test system of series [3] is MR2 cells (MLL-ENL + NRasG12D). Put plainly: cells. The following applies: Mus musculus, read-out: IC50 MR2.
Method: as §8
The test system of the next series is HL60 cells. As to the kind of experiment: Cell Titer-Glo viability (cytotoxicity) assay, HL60. It counts as cell-based, human. The following applies: 72 hours exposure.
Text: as §1

In the next series the test system is KG1a cells. As to the kind of experiment: Cell Titer-Glo viability (cytotoxicity) assay, KG1a. It counts as cell-based, human. Particulars: 72 hours exposure.
Text: as §1

In series [4] the test system is M1 cells (MLL-ENL alone). Put plainly: cells. The following applies: Mus musculus, read-out: IC50 M1.
Method: as §8
Series [5] concerns murine AML cells expressing p210 BCR-ABL. Put plainly: Cytotoxicity assay of murine AML cells expressing p210 BCR-ABL. It counts as cell-based. Particulars: 72 hours. The text has this: (§2) FIG. 1. […] (B) Flow cytometry of Annexin V assay.
(§3) In addition to p53 loss, several other adverse prognostic factors are expressed in the cell lines tested. K562 cells express the fusion gene BCR-ABL that has been implicated in chemotherapy resistance^17 and prognosis in AML^18. THP-1 cells express high levels of MN1^18, shown to confer an adverse prognosis^20-21.

Series [6] deals with murine AML cells expressing human MN1. Put plainly: Cytotoxicity assay of murine AML cells expressing MN1. The following applies: 72 hours. The class given is cell-based.
Text: as §2, §3

Series [7] concerns MLL-ENL- and FLT3 ITD-expressing cell line with p53-targeting shRNA. As to the kind of experiment: Cytotoxicity assay of murine AML cells with p53 knockdown. Particulars: p53 shRNA vs control vector, 72 hours.
Method: (A) Cytotoxicity assays of murine AML cells that knockdown p53. Cells were exposed to the indicated drugs for 72 hours and then assessed for viability. Viability is shown as percentage of control; error bars represent the standard error.
Viability assays were done using the Cell Titer-Glo assay (Promega, Madison, Wis.) according to the manufacturer's protocol. All murine cells were derived from fetal liver cells infected with MLL-ENL alone or with a mutation of glycine at amino acid 12 to aspartate of NRAS (NRAS^G12D) or FLT3-ITD expressing vectors^10. Murine cells were maintained in stem cell media (40% DMEM, 40% IMDM, 20% FBS, supplemented with murine SCF to 10 ng/ml, murine IL6 to 2 ng/ml, and murine IL3 to 0.4 ng/ml).
Series [8] has as its system human LSCs (K562 and HL60 cells, three primary patient samples). Particulars: 24 hours drug, colonies read on or after day 7.
For series [9], the system named is MFL2 cell line (MLL-ENL and FLT3 ITD) leukemia in C57/Bl6 mice. The following applies: for survival compared to controls: 5-FU 121 mg/kg. From the text: FIG. 6. […] A) Schema of treatment trial. C57/Bl6 mice were sublethally irradiated to 4.5 Gy and injected with an MLL-ENL and Fms-like tyrosine kinase 3 internal tandem duplication (FLT3-ITD) syngeneic leukemia. […] (B) Bioluminescent image of mice on day 6 following treatment. (C) Kaplan-Meier curves for animals treated with Fd, 5-FU or AD as above.
(§4) The Wake Forest University Institutional Animal Care and Use Committee approved all mouse experiments. Luciferase-tagged leukemia cells were transplanted into 6- to 8-wk-old sublethally irradiated recipient mice (4.5 Gy) by tail-vein injection of 1×10^6 viable cells. Mice were monitored by bioluminescent imaging on day 7. Imaging was performed using an IVIS100 imaging system (Caliper LifeSciences, Hopkinton, Mass.). Mice were injected with 150 mg/kg D-Luciferin (Gold Biotechnology, St. Louis, Mo.), anesthetized with isoflurane, and imaged for 2 min. Chemotherapy was initiated upon detection of clear signals. […] Control animals were injected with PBS. Repeat luciferase imaging was performed on day 6 of treatment.
(§5) Recent studies have shown that the bone marrow microenvironment can have a profound effect on chemotherapy response in AML^24. Additionally, the immune system can affect the degree of response to a given therapy in vivo^25. […] This cell line express MLL-ENL and the mutated oncogene, NRas^G12D in conjunction with a luciferase reporter. […] This cell line expresses the FLT3 receptor with an internal tandem duplication (FLT3 ITD) in place of NRas^G12D. […] (300 mg/kg), 5-FU (121 mg/kg) or Ara-C (125 mg/kg) plus doxorubicin (3.75 mg/kg) on days 1, 3, 5, and 7 (FIG. 1A).

Series [10] concerns MR2 cell line (MLL-ENL and NRasG12D) leukemia in C57/Bl6 mice.
Text: FIG. 12. […] C57/Bl6 mice were sublethally irradiated to 4.5 Gy and injected with an MLL-ENL and NRAS syngeneic leukemia. […] P value was obtained by log rank test. […] P value was obtained by log rank test.
as §4, §5

Series [11] concerns MLL-ENL driven murine AML cells.
Method: FIG. 4. […] (A) EdU incorporation assays. MLL-ENL driven murine AML cells were incubated with the indicated drug for 8 hours and subjected to a 5-ethynl-2′ deoxyuridine (EdU) incorporation assay. S phase cells were gated as shown. Percentages shown are for cells in S phase. (B) EdU incorporation assay as in (A). Cells were infected with either a p53 targeting shRNA or a control vector and exposed to the indicated drug for 8 hours.
The test system of series [12] is MFL2 cells (MLL-ENL + Flt3 ITD). The following applies: read-out: IC50 MFL2.
Method: as §8
Series [13] deals with MR2 cells (MLL-ENL + NRasG12D). The following applies: read-out: IC50 MR2.
Method: as §8
The test system of series [14] is murine AML cells expressing the p53 shRNA. The following applies: 48 hours.
Method: (B) Flow cytometry of Annexin V assay. Cells expressing the p53 short hairpin RNA (shRNA) were exposed to the indicated drug for 48 hours and then labeled with Annexin V and propidium iodide (PI).
(§9) Cells were seeded in 6-well plates at 25,000 cells/ml in 3 mls, grown for 2 days and treated with the indicated drug for 16, 24, 36, or 48 hours. After centrifugation and washing in cold PBS cells were stained with PI (Sigma Aldrich, St. Louis, Mo.) and APC-conjugated Annexin V in a binding buffer (0.1 M Hepes (pH 7.4), 1.4 M NaCl, and 25 mM CaCl2 solution) (BD Pharmingen, San Jose, Calif.) according to the manufacturer's protocol. Flow cytometric analysis was conducted on a BD FACS Cantoll cytometer with the BD FACSDiva software (BD Biosciences, San Jose, Calif.).
Another series concerns THP-1 and HL60 cells. Particulars: 48 hours.
Another series relates to murine AML cell lines. Particulars: 24 hours. How it is done: FIG. 11. […] (A) Flow cytometry results of Annexin V assays. The indicated MLL-ENL driven leukemia cells were treated with drug for 24 hours analyzed by flow cytometry, as in FIG. 5. (B) MLL-ENL and neuroblastoma RAS viral oncogene homolog (NRAS) containing AML cells were exposed to the indicated drug for 24 hours and analyzed as in (A).

Series [15] deals with topoisomerase I cleavage complexes (Top1CC) in THP-1, Jurkat and HL60 cells (Homo sapiens, UniProt P11387). Put plainly: ICE bioassay / Top1 cleavage complex detection. Particulars: 100 nM, 24 or 48 hours.
Chain of topoisomerase I cleavage complexes (Top1CC) in THP-1, Jurkat and HL60 cells (P11387 2-765 limits assumed, one chain of several): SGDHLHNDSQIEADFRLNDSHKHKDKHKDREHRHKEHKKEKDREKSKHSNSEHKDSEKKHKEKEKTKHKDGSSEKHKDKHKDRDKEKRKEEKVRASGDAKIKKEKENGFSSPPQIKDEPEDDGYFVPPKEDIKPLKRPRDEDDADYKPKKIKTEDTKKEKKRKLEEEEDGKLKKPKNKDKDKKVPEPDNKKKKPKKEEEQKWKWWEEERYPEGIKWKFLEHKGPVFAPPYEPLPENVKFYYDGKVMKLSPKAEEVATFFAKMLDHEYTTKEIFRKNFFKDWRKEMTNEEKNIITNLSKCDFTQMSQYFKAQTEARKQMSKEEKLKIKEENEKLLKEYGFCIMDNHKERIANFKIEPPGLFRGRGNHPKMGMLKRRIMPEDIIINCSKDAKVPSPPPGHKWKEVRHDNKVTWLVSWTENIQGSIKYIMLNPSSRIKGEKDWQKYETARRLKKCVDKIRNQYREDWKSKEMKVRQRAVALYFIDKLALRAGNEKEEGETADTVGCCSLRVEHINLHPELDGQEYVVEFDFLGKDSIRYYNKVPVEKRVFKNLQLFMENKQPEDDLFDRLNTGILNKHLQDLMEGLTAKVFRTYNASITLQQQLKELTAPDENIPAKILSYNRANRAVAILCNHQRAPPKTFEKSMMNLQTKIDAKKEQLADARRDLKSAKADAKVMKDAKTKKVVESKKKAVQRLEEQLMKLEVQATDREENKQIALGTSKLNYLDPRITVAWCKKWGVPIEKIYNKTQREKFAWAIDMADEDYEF
Method: (B) ICE bioassay for Top1 cleavage complexes. […] Cells were lysed and subjected to ICE bioassay (see methods), and DNA-containing fractions were blotted for Topo I. (C) Results of TS and Top1 Western blots.
Cells were plated at 1.5×10^6 cells in 100 mm^2 plates and grown in RPMI 1640 medium with 20% FBS. […] Cells were lysed in 2 ml of 1% sarkosyl in 1×TE pH 7.5 and frozen at −20° C. Samples were homogenized approximately 25 times. Addition of 1 ml of sarkosyl was used to wash the homogenizer. CsCl gradients were made as in^9. The samples were overlaid and ultracentrifuged in a SW41T rotor. Centrifugation was at 36K for 20-22 hours at 20° C. 500 ml fractions were collected. Fractions 6 through 11 were used for analysis. 200 ul of each fraction and an equal volume of 25 mM NaPO4 buffer (pH 6.5) were loaded onto a nitrocellulose membrane using a Schleicher and Schuell Minifold II slot blotter. The membrane was blocked with 5% milk in TBST. Primary antibody was added at 1:500 dilution, overnight at 4° C. Secondary antibody was used in the same manner. ECL Lightning Plus (Perkin Elmer) was used for detection of the TOP1 cleavage complex.
The test system of series [16] is K562 cells. The following applies: 24 hours.
Method: (A) Immuno-fluorescence for gamma histone H2AX (γH2AX) foci. K562 cells were treated with the indicated drug for 24 hours and then assayed for the presence of γH2AX foci. Secondary antibody was conjugated with Alexa Fluor 594 and Images were captured with an Olympus IX70 inverted fluorescent microscope equipped with a Retiga 2000R digital color camera and using an LPIanFI 20×/0.40 objective. Images were analyzed with Image Pro Plus 5.1 software.
For immunofluorescence studies of phosphorylated γH2AX, cells were fixed with 4% NBF, permeabilized with PBS containing 0.2% Triton-X 100, and probed with anti-phosphoH2AX (#2577, 1:100; Cell Signalling Technologies) followed by donkey anti-rabbit Alexa Fluor 594 conjugated antibody (1:500, A-21207; Invitrogen) and visualized via fluorescence microscopy.
The test system of series [17] is M1 cells (MLL-ENL alone). Particulars: read-out: IC50 M1.
Method: as §8
The next series deals with T1, thymidylate synthase (Homo sapiens, UniProt P04818).
T1 construct: endogenous in cells; host or cells: HL60
T1 sequence (P04818 2-313 limits assumed): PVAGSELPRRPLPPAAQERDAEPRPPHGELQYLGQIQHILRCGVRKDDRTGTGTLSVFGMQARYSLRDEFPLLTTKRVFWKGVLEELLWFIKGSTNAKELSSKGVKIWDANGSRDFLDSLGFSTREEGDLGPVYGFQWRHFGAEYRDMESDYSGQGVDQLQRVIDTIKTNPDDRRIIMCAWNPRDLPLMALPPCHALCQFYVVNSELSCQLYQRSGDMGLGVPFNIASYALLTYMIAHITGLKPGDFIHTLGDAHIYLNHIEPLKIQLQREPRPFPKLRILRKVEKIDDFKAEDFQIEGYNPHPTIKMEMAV
Put plainly: TS catalytic activity in treated HL60 cells. Particulars: 100 nM 5-FU. It counts as cell-based.

In a further series the test system is normal C57/Bl6 mice. As to the kind of experiment: Toxicology study, histopathology. The class given is in vivo, mouse. The following applies: dosed days 1, 3, 5, 7; sacrificed three days after last treatment. As for the experimental part:
(§6) FIG. 7. […] Mice were treated in the same manner as the in FIG. 6; sacrificed 72 hours after the last dose; and organs were harvested, fixed, paraffin-embedded, sectioned, and stained. Slides were imaged using a Nikon Eclipse 50i light microscope, magnification as indicated. Photographs of tissues were taken using the NIS Elements D3.10 camera and software system. (B) Bone marrow transplant. […] Ly5.1+C57/Bl6 recipient mice were irradiated to 8 gray and injected with donor cells. After three weeks recipients were harvested and degree of femur engraftment by donor cells was determined by staining with Ly5.2 antibody and analyzed by flow cytometry.
(§7) Normal C57/Bl6 mice were treated with identical dose, schedule and route of each drug as in the efficacy studies (i.e. Day 1, 3, 5 and 7). 72 hours after the last dose, animals were sacrificed, bilateral femoral cells harvested and organs fixed in 10% neutral buffered formalin followed by routine tissue processing and sectioning for hematoxylin and eosin staining. Slides were then reviewed by a veterinary pathologist using a Nikon Eclipse 50i light microscope. Photographs of tissues were taken using the NIS Elements D3.10 camera and software system. […] Three weeks later recipient femoral bone marrow was harvested and stained with APC-conjugated anti-Ly5.2 antibody (BD Pharmingen, San Diego, Calif.) and analyzed by flow cytometry. […]

The test system of a further series is normal murine HSCs. Particulars: mouse, in vivo. How it is done:
as §6, §7

[18] abbreviates: days 1, 3, 5 and 7, FdUMP[10] 300 mg/kg.

Method for THP-1 and HL60 cells: (B) Flow cytometry of Annexin V assay. THP-1 or HL60 cells were treated with the indicated drug for 48 hours and then labeled with Annexin V and propidium iodide (PI) and analyzed by flow cytometry.
as §9

For the molecule `Nc1ccn([C@@H]2O[C@H](CO)[C@@H](O)[C@@H]2O)c(=O)n1` [Cytarabine, cytarabine], the half-maximal inhibitory concentration (IC50) with Jurkat cells (Homo sapiens, Jurkat) turned out to be 15.5 nM; in the series on THP-1 cells (Homo sapiens, THP-1) it was 6700 nM; in [1], 54.4 nM; in the series on K562 cells [2] (Homo sapiens, K562), 83.7 nM; in the series with OCI-AML3 cells (Homo sapiens, OCI-AML-3), 134 nM; in series [3], 71.8 nM. The IC50 in the series on HL60 cells (Homo sapiens, HL-60) came to 145 nM; in the series with KG1a cells (Homo sapiens, KG-1a), 196 nM; in the series with M1 cells (MLL-ENL alone) [4], 46.8 nM.
Turning to `COc1cccc2c1C(=O)c1c(O)c3c(c(O)c1C2=O)C[C@@](O)(C(=O)CO)C[C@@H]3O[C@H]1C[C@H](N)[C@H](O)[C@H](C)O1` [Doxorubicin, doxorubicin], the IC50 in the series with Jurkat cells (Homo sapiens, Jurkat) is 75.2 nM; in the series with THP-1 cells (Homo sapiens, THP-1), 160 nM; in [1], 24.6 nM; in the series on K562 cells [2] (Homo sapiens, K562) it was 253 nM; in [3] it was 11.4 nM; in the series with HL60 cells (Homo sapiens, HL-60) it was 21.7 nM. The IC50 came out at 1300 nM in the series with KG1a cells (Homo sapiens, KG-1a) and 3.7 nM with M1 cells (MLL-ENL alone) [4]. In addition, the “fold change of IC50 vs parental leukemia cells, p210 BCR-ABL” value in [5] was found to be 2.95 fold. For the same molecule, the “fold change of IC50 vs parental leukemia cells, MN1” value in [6] is on record as more than 10 fold. For the same molecule, the “change in response (viability) on loss of p53 response” value in [7] is “resistance”.
Regarding “10-mer oligonucleotide of 5-fluorodeoxyuridine [FdUMP[10]]”, the IC50 in the series with Jurkat cells was 5.4 nM; with THP-1 cells, 4.1 nM; in [12] it was 0.131 nM; in series [13] it was 0.124 nM; with K562 cells [2], 21.5 nM; in the series with OCI-AML3 cells it was 5.5 nM. Besides, the values for the IC50 in the series with HL60 cells, in the series with KG1a cells and in the series on M1 cells (MLL-ENL alone) [17] were 3.4 nM, 4.9 nM and 0.124 nM, respectively. Besides, in series [8], the “suppression of colony formation, cell lines and primary patient samples” value was “highly effective in suppressing colony formation”. In addition, the “survival compared to Ara/Dox treated animals” value in series [9] (Ara-C 125 mg/kg plus doxorubicin 3.75 mg/kg, days 1, 3, 5, 7) was “no difference in survival”. In addition, the “disease burden (bioluminescent imaging)” value in [9] (setting [18]) was “reduced disease burden”. For the same molecule, the “survival compared to controls” value in series [9] (setting [18]) is recorded as “improved survival”. Also, in series [10] (300 mg/kg every other day for four doses), the survival entry was “significant survival benefit”. Further, the “disease burden (bioluminescence)” value in [10] (300 mg/kg on days 1 and 4) is “reduction in disease burden”. In addition, the “survival vs untreated controls” value in [10] (300 mg/kg on days 1 and 4) is “statistically significant survival benefit”. The “S-phase arrest in cells expressing a p53 targeting shRNA” value in series [11] (8 hours exposure) is “efficiently arrested in S-phase”. The “accumulation of cells in S-phase” value in series [11] (eight hours exposure) is reported as “cells accumulated in S-phase”. The “Annexin V binding in p53-suppressing cells” value in [14] is “positive for Annexin V binding”. In addition, in the series with THP-1 and HL60 cells (10 or 100 nM), the “apoptosis by Annexin V and propidium iodide staining” value is “a majority of cells were stained positive”. The “apoptosis induction in murine AML cell lines” value with murine AML cell lines was “efficiently induced apoptosis”. In addition, the “trapped Top1 cleavage complexes” value in series [15] is “Top1 was detected co-migrating with genomic DNA”. Moreover, in the series on K562 cells [16] (10 or 100 nM), the “γH2AX foci (DNA DSBs)” value is recorded as “formation of multiple γH2AX foci”. In addition, in series [7], the “change in response (viability) on loss of p53 response” value is “no change observed”.
As to `O=c1[nH]cc(F)c(=O)[nH]1` [5-FU, 5-fluorouracil], the IC50 stood at 7500 nM in the series with Jurkat cells (Homo sapiens, Jurkat); 1200 nM in the series on THP-1 cells (Homo sapiens, THP-1); 292 nM in series [1]; 7000 nM with K562 cells [2] (Homo sapiens, K562); 214 nM in series [3]; 5000 nM in the series with HL60 cells (Homo sapiens, HL-60). In the series with KG1a cells (Homo sapiens, KG-1a), this molecule gave an IC50 of 5300 nM. In addition, the TS inhibition entry on thymidylate synthase was “did not significantly inhibit TS”. Besides, the deaths on treatment entry in series [9] (5-FU 121 mg/kg days 1, 3, 5, 7) is “early deaths”. In series [9] (setting [18]), the “survival compared to controls” value was “no survival benefit over controls”. For the same molecule, the “accumulation of cells in S-phase” value in series [11] (eight hours, 5-FU at 100 times the FdUMP[10] concentration) is recorded as “essentially no difference in the number of cells in S-phase from control”. Also, in the series on normal C57/Bl6 mice, the “GI-tract histopathology (small and large intestine)” value was “severe villous blunting and fusion with crypt necrosis”. Also, the bone marrow histopathology result in the series with normal C57/Bl6 mice is given as “severe pancytopenia”. In the series on normal murine HSCs, the “engraftment of femur cells from treated donors in irradiated recipients” value is recorded as “only minimal engraftment”. For the same molecule, the “apoptosis by Annexin V staining” value in the series on THP-1 and HL60 cells (100 nM 5-FU) is given as “only minimal annexin V positive cells”. The “γH2AX foci (DNA DSBs)” value in the series on K562 cells [16] (1 μM) was “did not result in the formation of γH2AX foci”.

The record behind these values is patent US9012422B2, “Method of treating acute myelogenous leukemia” (Wake Forest University Health Sciences, priority 2011, dated 2015).
